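Method: 48-hour compound exposure of cells in 96-well plates, five concentrations, linear interpolation of endpoints. GI50 is the concentration that inhibits growth by half. The concentration for full growth arrest is given as TGI.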
How the values were obtained:
Assay in all cases: growth of human tumour cells (NCI), 48 h
[1] = tested on: MALME-3M melanoma
[2] = tested on: SF-539 CNS
[3] = tested on: A549 NSCLC
[4] = tested on: COLO 205 colon
[5] = tested on: A498 renal
[6] = tested on: BT-549 breast
[7] = tested on: 786-0 renal
[8] = tested on: HT29 colon
[9] = tested on: UO-31 renal
[10] = tested on: SR leukemia
[11] = tested on: TK-10 renal
[12] = tested on: SW-620 colon
[13] = tested on: K-562 leukemia
[14] = tested on: MDA-MB-231 breast
[15] = tested on: NCI-H23 lung
[16] = tested on: SN12C renal
[17] = tested on: EKVX NSCLC
[18] = tested on: HL-60(TB) leukemia
[19] = tested on: DU-145 prostate
[20] = tested on: NCI-H460 lung
[21] = tested on: OVCAR-5 ovarian
[22] = tested on: SK-OV-3 ovarian
[23] = tested on: HCC-2998 colon
[24] = tested on: LOX IMVI melanoma
[25] = tested on: SF-268 CNS
[26] = tested on: SF-295 CNS
[27] = tested on: ACHN renal
[28] = tested on: OVCAR-3 ovarian
[29] = tested on: MDA-MB-435

O=C(/C=C/c1cc(Cl)ccc1Cl)Nc1ncc(Cc2ccc(Cl)cc2)s1
GI50 [1]: 866 nM
TGI [1]: 43300 nM
GI50 [2]: 32.8 nM
TGI [2]: 202 nM
GI50 [3]: 99.2 nM
TGI [3]: 13000 nM
GI50 [4]: 82.3 nM
TGI [4]: 378 nM
GI50 [5]: 31.6 nM
TGI [5]: 235 nM
GI50 [6]: 57.4 nM
TGI [6]: 379 nM
GI50 [7]: 112 nM
TGI [7]: 3240 nM
GI50 [8]: 86.8 nM
TGI [8]: 1210 nM
GI50 [9]: 142 nM
TGI [9]: 7360 nM
GI50 [10]: 32.4 nM
TGI [10]: > 100000 nM
GI50 [11]: 1300 nM
TGI [11]: 11100 nM
GI50 [12]: 45.4 nM
TGI [12]: > 100000 nM
GI50 [13]: 35.2 nM
TGI [13]: > 100000 nM
GI50 [14]: 179 nM
TGI [14]: 9530 nM
GI50 [15]: 67.3 nM
TGI [15]: 11000 nM
GI50 [16]: 150 nM
TGI [16]: 11700 nM
GI50 [17]: 158 nM
TGI [17]: > 72900 nM
GI50 [18]: 28.2 nM
TGI [18]: 256 nM
GI50 [19]: 300 nM
TGI [19]: 15900 nM
GI50 [20]: 64 nM
TGI [20]: 1510 nM
GI50 [21]: 197 nM
TGI [21]: 13800 nM
GI50 [22]: 78.7 nM
TGI [22]: 17000 nM
GI50 [23]: 209 nM
TGI [23]: 10700 nM
GI50 [24]: 101 nM
TGI [24]: 11300 nM
GI50 [25]: 1170 nM
TGI [25]: 52900 nM
GI50 [26]: 38.2 nM
TGI [26]: 5130 nM
GI50 [27]: 128 nM
TGI [27]: 5290 nM
GI50 [28]: 113 nM
TGI [28]: 1280 nM
GI50 [29]: 19.2 nM
TGI [29]: 41.4 nM
